According to ChEMBL document CHEMBL3826962, “Synthesis, biological evaluation and molecular docking of 2-phenyl-benzo[d]oxazole-7-carboxamide derivatives as potential Staphylococcus aureus Sortase A inhibitors” (Bioorg Med Chem Lett, 2016):
pIC50: −log10 of the molar value.

Assay: Inhibition of Staphylococcus aureus sortase A using Abz-LPETG-Dap(DNP)-NH2 as substrate preincubated for 1 hr followed by substrate addition by FRET assay

SMILES	pIC50
CC(C)CNC(=O)c1cccc2nc(-c3ccc(COC(=O)c4ccc([N+](=O)[O-])cc4)cc3)oc12	3.80
CC(C)NC(=O)c1cccc2nc(-c3ccc(COC(=O)c4cccc(O)c4)cc3)oc12	3.84
CCCCNC(=O)c1cccc2nc(-c3ccc(COC(=O)c4cccc(O)c4)cc3)oc12	3.79
O=C(Cc1cccc(O)c1)OCc1ccc(-c2nc3ccccc3o2)cc1	< 3.70
CCCCNCc1ccc(-c2nc3cccc(C(=O)NCC(C)C)c3o2)cc1	3.87
CC(C)CNC(=O)c1cccc2nc(-c3ccc(CNCc4ccccc4)cc3)oc12	3.89
CCCCNC(=O)c1cccc2nc(-c3ccc(COC(=O)Cc4cccc(O)c4)cc3)oc12	3.75
O=C(OCc1ccc(-c2nc3ccccc3o2)cc1)c1ccc(O)cc1	< 3.70
CCCCNC(=O)c1cccc2nc(-c3ccc(COC(=O)Cc4ccc(O)cc4)cc3)oc12	3.74
CCCCNC(=O)c1cccc2nc(-c3ccc(COC(=O)c4ccc(O)cc4)cc3)oc12	3.81
CC(C)CNC(=O)c1cccc2nc(-c3ccc(COC(=O)c4ccccc4[N+](=O)[O-])cc3)oc12	3.81
CC(C)CNC(=O)c1cccc2nc(-c3ccc(COC(=O)c4ccccc4)cc3)oc12	3.79
O=C(Cc1ccc(O)c(O)c1)OCc1ccc(-c2nc3ccccc3o2)cc1	< 3.70
CCCCNC(=O)c1cccc2nc(-c3ccc(COC(=O)/C=C/c4ccc(O)cc4)cc3)oc12	3.73
O=C(OCc1ccc(-c2nc3ccccc3o2)cc1)c1cccc(O)c1	< 3.70

Now those with a higher pIC50, led by results:

pIC50	SMILES
3.93	CC(C)NC(=O)c1cccc2nc(-c3ccc(COC(=O)Cc4ccc(O)cc4)cc3)oc12
4.06	CC(C)CNC(=O)c1cccc2nc(-c3ccc(COC(=O)/C=C/c4ccc(O)cc4)cc3)oc12
4.06	CC(C)CNC(=O)c1cccc2nc(-c3ccc(COC(=O)Cc4ccc([N+](=O)[O-])c(O)c4)cc3)oc12
4.09	CC(C)CNC(=O)c1cccc2nc(-c3ccc(COC(=O)Cc4cccc(O)c4)cc3)oc12
4.13	CC(C)NC(=O)c1cccc2nc(-c3ccc(COC(=O)Cc4ccc(O)c(O)c4)cc3)oc12
4.14	CC(C)CNC(=O)c1cccc2nc(-c3ccc(COC(=O)Cc4ccc(O)cc4)cc3)oc12
4.18	COc1ccc(NCc2ccc(-c3nc4cccc(C(=O)NCC(C)C)c4o3)cc2)cc1
4.19	CC(C)CNC(=O)c1cccc2nc(-c3ccc(COC(=O)Cc4ccc(O)c(O)c4)cc3)oc12
4.33	CC(C)NC(=O)c1cccc2nc(-c3ccc(COC(=O)c4ccc(O)cc4)cc3)oc12
4.58	CC(C)CNC(=O)c1cccc2nc(-c3ccc(COC(=O)c4cccc(O)c4)cc3)oc12
4.61	COc1cc(OC)cc(C(=O)OCc2ccc(-c3nc4cccc(C(=O)NCC(C)C)c4o3)cc2)c1
4.65	CC(C)CNC(=O)c1cccc2nc(-c3ccc(COC(=O)c4ccc(O)cc4O)cc3)oc12
4.69	CC(C)CNC(=O)c1cccc2nc(-c3ccc(COC(=O)c4ccc(O)c(O)c4)cc3)oc12
4.70	CC(C)CNC(=O)c1cccc2nc(-c3ccc(COC(=O)c4ccc(O)c(O)c4O)cc3)oc12
